Assay: solvent given as SMILES

CCCCCC
Details	solvation free energy, 298 K [kcal/mol]
in BrC(Br)C(Br)Br	-2.72
in Brc1cccc2ccccc12	-3.07
in Brc1ccccc1	-3.65
in C1=Cc2ccccc2C1	-3.49
in C1CCC(C2CCCCC2)CC1	-3.73
in C1CCCCC1	-4.06
in C1CCOC1	-3.9
in C1COCCO1	-3.22
in C=CCCCC	-4.02
in C=CCCCCCC	-3.93
in C=CCCCCCCCC	-3.92
in C=CCCCCCCCCCCCCCC	-3.59
in CC1CCS(=O)(=O)C1	-2.13
in CC1COC(=O)O1	-2.04
in CC#N	-2.63
in CC(=O)CC(C)C	-3.59
in CC(=O)N(C)C	-2.76
in CC(=O)O	-2.89
in CC(=O)OCc1ccccc1	-3.02
in CC(=O)c1ccccc1	-3.04
in CC(C)(C)Cl	-4
in CC(C)(C)O	-3.33
in CC(C)=O	-3.26
in CC(C)CCCC(C)CCCC(C)CCCCC(C)CCCC(C)CCCC(C)C	-3.47
in CC(C)CCO	-3.31
in CC(C)CCl	-3.94
in CC(C)CO	-3.36
in CC(C)O	-3.21
in CC(C)OC(C)C	-3.98
in CC(O)CO	-1.94
in CCBr	-4.08
in CCC#N	-3.13
in CCC(C)(C)C	-4.04
in CCC(C)(C)OC	-3.92
in CCC(C)=O	-3.44
in CCC(C)Cl	-3.98
in CCCC#N	-3.07
in CCCC(=O)OCC	-3.64
in CCCC(C)=O	-3.52
in CCCCC	-4.11
in CCCCC#N	-3.27
in CCCCC(CC)COC(=O)CCCCC(=O)OCC(CC)CCCC	-3.33
in CCCCC(CC)COC(=O)c1ccccc1C(=O)OCC(CC)CCCC	-3.13
in CCCCCC#N	-3.28
in CCCCCC(C)=O	-3.54
in CCCCCCC	-3.97
in CCCCCCCC	-3.92
in CCCCCCCCC	-3.86
in CCCCCCCCC=CCCCCCCCC(=O)OCC(COC(=O)CCCCCCCC=CCCCCCCCC)OC(=O)CCCCCCCC=CCCCCCCCC	-3.45
in CCCCCCCCCC	-3.83
in CCCCCCCCCCCC	-3.73
in CCCCCCCCCCCCCC	-3.6
in CCCCCCCCCCCCCCCC	-3.64
in CCCCCCCCCCCCO	-3.31
in CCCCCCCCCOC(=O)c1ccccc1C(=O)OCCCCCCCCC	-3.23
in CCCCCCCCN(CCCCCCCC)CCCCCCCC	-3.49
in CCCCCCCCO	-3.36
in CCCCCCCO	-3.33
in CCCCCCO	-3.39
in CCCCCCOC(C)=O	-3.61
in CCCCCN(CCCCC)CCCCC	-3.67
in CCCCCO	-3.33
in CCCCCl	-3.91
in CCCCN(C=O)CCCC	-3.25
in CCCCN(CCCC)CCCC	-3.6
in CCCCO	-3.32
in CCCCOC(=O)c1ccccc1C(=O)OCCCC	-3.24
in CCCCOC(C)=O	-3.59
in CCCCOCCCC	-3.87
in CCCO	-3.16
in CCN1CCCC1=O	-2.88
in CCN(CC)C(C)=O	-3.11
in CCN(CC)CC	-4.01
in CCNC(C)=O	-2.92
in CCNC=O	-2.69
in CCO	-3.1
in CCOC(=O)c1ccccc1C(=O)OCC	-2.73
in CCOC(C)(C)C	-3.93
in CCOC(C)=O	-3.46
in CCOCC	-3.99
in CCOCCO	-2.96
in CCOCCOCCOCC	-3.42
in CCOc1ccccc1	-3.49
in CN1CCCC1=O	-2.65
in CN1CCCCC1=O	-2.78
in CN1CCN(C)C1=O	-2.51
in CN(C)C=O	-2.62
in CN(C)P(=O)(N(C)C)N(C)C	-2.98
in CNC(C)=O	-2.74
in CNC=O	-2.36
in CO	-2.82
in COC(C)(C)C	-4.01
in COC(C)=O	-3.3
in COCCO	-2.7
in COCCOCCOCCOCCOC	-2.82
in COc1ccccc1	-3.41
in CS(C)=O	-1.83
in Cc1ccc(C)cc1	-3.87
in Cc1cccc2ccccc12	-3.36
in Cc1cccc(C)c1	-3.85
in Cc1cccc(O)c1	-2.91
in Cc1ccccc1	-3.87
in Cc1ccccn1	-3.5
in ClC(Cl)(Cl)Cl	-4.08
in ClC(Cl)C(Cl)Cl	-3.35
in ClC(Cl)Cl	-3.94
in ClCCCl	-3.45
in ClCCl	-3.75
in Clc1cccc2ccccc12	-3.23
in Clc1ccccc1	-3.85
in FC(F)(F)C(F)(F)C(F)(F)C(F)(F)C(F)(F)C(F)(F)C(F)(F)C(F)(F)F	-2.53
in FC(F)(F)C(F)(F)C(F)(F)C(F)(F)C(F)(F)C(F)(F)F	-2.67
in Fc1ccccc1	-3.88
in ICI	-2.2
in N#CCCCC#N	-1.5
in N#CCCCCC#N	-1.86
in N#CCCO	-1.84
in N#CCCOCCC#N	-0.89
in N#CCc1ccccc1	-2.62
in N#Cc1ccccc1	-3.13
in NC=O	-0.53
in NCCN	-1.85
in NCCO	-0.77
in NCc1ccccc1	-2.92
in Nc1ccccc1	-2.36
in O=C1CCCCC1	-3.37
in O=C1CCCO1	-2.22
in O=C(O)C(Cl)Cl	-2.74
in O=CN1CCOCC1	-1.98
in O=Cc1ccco1	-2.37
in O=S=O	-3.18
in OC1CCCCC1	-3.1
in OCC1CCCO1	-2.62
in OCCCCCO	-2.03
in OCCCCO	-1.88
in OCCCO	-1.54
in OCCCl	-2.22
in OCCOCCO	-1.43
in OCCOCCOCCO	-1.54
in OCCOCCOCCOCCO	-1.65
in OCCS	-1.9
in OCCc1ccccc1	-2.75
in OCc1ccccc1	-2.66
in OCc1ccco1	-2.27
in S=C=S	-4.03
in c1ccc2c(c1)CCCC2	-3.65
in c1ccc2ncccc2c1	-3.1
in c1ccc(C2CCCCC2)cc1	-3.62
in c1ccccc1	-3.84
in c1ccncc1	-3.27

CC(C)Cc1cnccn1
Details	solvation free energy, 298 K [kcal/mol]
in O	-5.04

C=C(C)C1CCC(C)C12CC=C(C)CC2 (stereo not given)
Details	solvation free energy, 298 K [kcal/mol]
in O	0.25

O=c1[nH]c2ccccc2n1C1CCN(CCCC(c2ccc(F)cc2)c2ccc(F)cc2)CC1
Details	solvation free energy, 298 K [kcal/mol]
in C1COCCO1	-27.7
in CC(C)O	-26.4
in CCCCCCCCO	-26.7
in CCCCCCCO	-26.8
in CCCCCCO	-26.7
in CCCCCO	-26.8
in CCCCO	-26.7
in CCCO	-26.6
in CCO	-26.6
in CCOC(C)=O	-26.6
in CO	-26.6

C=CC(C)(CCC=C(C)C)OC=O (stereo not given)
Details	solvation free energy, 298 K [kcal/mol]
in O	-3.6

Cc1ccc(C)c(O)c1
Details	solvation free energy, 298 K [kcal/mol]
in CCCCCC	-6.46
in CCCCCCC	-6.44
in CCCCCCCC	-6.44
in Cc1ccc(C)cc1	-7.72
in Cc1cccc(C)c1	-7.76
in Cc1ccccc1C	-7.8
in O	-5.92

C=C1C=CC(C(C)C)CC1 (stereo not given)
Details	solvation free energy, 298 K [kcal/mol]
in O	0.26

C=C(Cl)Cl
Details	solvation free energy, 298 K [kcal/mol]
in CCO	-3.25
in CO	-2.95
in O	0.22

CCCCCCCCCCCCCC(=O)OC
Details	solvation free energy, 298 K [kcal/mol]
in O	-1.14

CCCSCCC
Details	solvation free energy, 298 K [kcal/mol]
in O	-1.28

Cc1cccc2c(C)cccc12
Details	solvation free energy, 298 K [kcal/mol]
in CCCCCCCCC=CCCCCCCCC(=O)OCC(COC(=O)CCCCCCCC=CCCCCCCCC)OC(=O)CCCCCCCC=CCCCCCCCC	-9.3
in O	-2.78

CC(=O)c1ccc(C)cc1
Details	solvation free energy, 298 K [kcal/mol]
in O	-4.7

Cn1cccc1
Details	solvation free energy, 298 K [kcal/mol]
in O	-2.89

CC(C)N(N=O)C(C)C
Details	solvation free energy, 298 K [kcal/mol]
in CC(C)CC(C)(C)C	-6.07
in O	-5.16

c1ccc(-c2ccccc2)cc1
Details	solvation free energy, 298 K [kcal/mol]
in C1COCCO1	-9.29
in CC(C)(C)O	-8.06
in CC(C)CC(C)(C)C	-8.32
in CC(C)CC(C)O	-8.13
in CC(C)CCO	-8.16
in CC(C)CO	-8.03
in CC(C)O	-8.09
in CC(C)OCCO	-8.73
in CCC(C)(C)O	-8.3
in CCC(C)O	-8.19
in CCCC(C)CO	-8.24
in CCCC(C)O	-8.25
in CCCCC(CC)CO	-8.27
in CCCCCC	-8.53
in CCCCCCC	-8.54
in CCCCCCCC	-8.53
in CCCCCCCCC=CCCCCCCCC(=O)OCC(COC(=O)CCCCCCCC=CCCCCCCCC)OC(=O)CCCCCCCC=CCCCCCCCC	-8.8
in CCCCCCCCCC	-8.49
in CCCCCCCCO	-8.39
in CCCCCCCO	-8.36
in CCCCCCO	-8.34
in CCCCCO	-8.34
in CCCCOCCCC	-8.85
in CCCCOCCO	-8.65
in CCCO	-8.25
in CCCOCCO	-8.76
in CCO	-8.23
in CCOCC	-8.59
in CCOCCO	-8.74
in CN(C)C=O	-9.33
in CO	-7.88
in COC(C)(C)C	-9.04
in COC(C)CCO	-8.68
in ClC(Cl)(Cl)Cl	-9.22
in ClCCCl	-9.34
in ClCCl	-9.4
in Clc1ccccc1	-9.26
in O	-2.66

CC(=O)OC(C)(C)C1CC=C(C)CC1 (stereo not given)
Details	solvation free energy, 298 K [kcal/mol]
in O	-3.41

CCOC(=O)c1ccccc1O
Details	solvation free energy, 298 K [kcal/mol]
in O	-3.82

O=[N+]([O-])c1ccc(Cl)c(Cl)c1
Details	solvation free energy, 298 K [kcal/mol]
in C1CCCCC1	-8.7
in CC(C)O	-8.04
in CCCCCC	-7.78
in CCCCCCC	-7.65
in CCCCCCCCC=CCCCCCCCC(=O)OCC(COC(=O)CCCCCCCC=CCCCCCCCC)OC(=O)CCCCCCCC=CCCCCCCCC	-7.34
in CCCCO	-8.08
in CCCO	-8.26
in CCO	-8.24
in CCOC(C)=O	-9.16
in CO	-8.41
in ClC(Cl)(Cl)Cl	-9.07

CC1=CC2C(=CC1)C(C)CCC2C(C)C (stereo not given)
Details	solvation free energy, 298 K [kcal/mol]
in O	-0.26
